# Data as given in US20200282008A1, “COMPOSITIONS AND METHODS FOR LONG TERM RELEASE OF GONADOTROPIN-RELEASING HORMONE (GnRH) ANTAGONISTS” (VERU INC., priority 2017, published 2020).
# Non-standard residues stand in square brackets, D forms with d. Residues, ends and D or L forms follow the SMILES beside them. dPhe(4-Cl) = N[C@H](Cc1ccc(Cl)cc1)C(=O)O; d2Nal = N[C@H](Cc1ccc2ccccc2c1)C(=O)O; dCit = NC(=O)NCCC[C@@H](N)C(=O)O; d3Pal = N[C@H](Cc1cccnc1)C(=O)O
# Tested on: serum testosterone
# Test: Second rat study: serum testosterone after cetrorelix PLGA formulations
# Assay type: in vivo, rats
# Method: In a second rat study serum testosterone and cetrorelix levels were measured over 12 weeks. […] The formulations found within Table 13 were injected in rats and then the testosterone was measured at 0, 1, 2, 8 and 24 hours and then daily until the end of the first week and then biweekly until week 4 and then weekly thereafter.
# FIG. 21 compares the data from the 2nd rat and 1st dog study results for testosterone levels.
compound,measurement,value
CC(=O)N[C@H](Cc1ccc2ccccc2c1)C(=O)N[C@H](Cc1ccc(Cl)cc1)C(=O)N[C@H](Cc1cccnc1)C(=O)N[C@@H](CO)C(=O)N[C@@H](Cc1ccc(O)cc1)C(=O)N[C@H](CCCNC(N)=O)C(=O)N[C@@H](CC(C)C)C(=O)N[C@@H](CCCNC(=N)N)C(=O)N1CCC[C@H]1C(=O)N[C@H](C)C(N)=O [cetrorelix] (Ac-[d2Nal][dPhe(4-Cl)][d3Pal]SY[dCit]LRP[dA]-NH2),cetrorelix level required to inhibit testosterone production,2 ng/mL
